Experiment [1] has as its target T1, AChE from Electrophorus electricus (Electrophorus electricus, UniProt O42275). As to the kind of experiment: biochemical.
Experiment [2] relates to T2, α-glucosidase (α-GLU) extracted from Saccharomyces cerevisiae.
T2 construct: gene MAL12; commercial yeast enzyme (Sigma-Aldrich)
Briefly: 4-nitrophenol release, absorbance […] nm. The experiment is classed as biochemical. The settings on record: 4-nitrophenyl alpha-D-glucopyranoside (5 mM solution), 0.1 M phosphate pH 7.0, 37 °C, 20 min; unreliable (far above the tested range, extrapolated).

The target of experiment [3] is T3, β-glucosidase (β-GLU) from almonds.
T3 construct: gene beta-glucosidase; commercial enzyme from almonds (Sigma-Aldrich)
As to the kind of experiment: 4-nitrophenol release, absorbance […] nm. In kind it is biochemical, Prunus dulcis. The following applies: 4-nitrophenyl beta-D-glucopyranoside, 0.1 M phosphate pH 7.0, 37 °C, 20 min.

The target of experiment [4] is T1, AChE from Electrophorus electricus. Briefly: Ellman assay, absorbance […] nm. The settings on record: acetylthiocholine iodide substrate with DTNB, phosphate buffer, 5 min preincubation; unreliable (above the tested range, extrapolated). The experiment is classed as biochemical.
Experiment [5] concerns the target T2, α-glucosidase (α-GLU) extracted from Saccharomyces cerevisiae. As to the kind of experiment: 4-nitrophenol release, absorbance […] nm. In kind it is biochemical. The following applies: 4-nitrophenyl alpha-D-glucopyranoside (5 mM solution), 0.1 M phosphate pH 7.0, 37 °C, 20 min.
The target in experiment [6] is T1, AChE from Electrophorus electricus. As to the kind of experiment: Ellman assay, absorbance […] nm. In kind it is biochemical. The following applies: acetylthiocholine iodide substrate with DTNB, phosphate buffer; no significant inhibition.

In brackets after ≈: the same amount, converted by molar mass.

T1 sequence (O42275 24-633): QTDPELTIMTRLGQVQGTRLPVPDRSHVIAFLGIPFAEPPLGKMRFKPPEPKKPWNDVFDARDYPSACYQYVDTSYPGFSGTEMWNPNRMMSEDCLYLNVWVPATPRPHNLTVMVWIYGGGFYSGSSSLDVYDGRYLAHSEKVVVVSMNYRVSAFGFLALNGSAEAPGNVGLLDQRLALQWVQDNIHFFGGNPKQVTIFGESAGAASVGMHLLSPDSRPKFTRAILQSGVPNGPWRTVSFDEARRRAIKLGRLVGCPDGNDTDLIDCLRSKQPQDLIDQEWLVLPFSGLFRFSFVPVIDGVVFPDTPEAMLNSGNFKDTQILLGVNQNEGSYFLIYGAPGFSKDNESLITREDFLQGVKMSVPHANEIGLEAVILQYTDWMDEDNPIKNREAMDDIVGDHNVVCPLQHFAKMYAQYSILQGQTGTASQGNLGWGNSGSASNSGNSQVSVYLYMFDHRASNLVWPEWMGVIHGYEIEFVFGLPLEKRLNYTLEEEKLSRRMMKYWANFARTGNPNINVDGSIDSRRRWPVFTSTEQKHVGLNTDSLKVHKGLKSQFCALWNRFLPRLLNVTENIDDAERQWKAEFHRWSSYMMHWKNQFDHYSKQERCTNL

As to `Cc1ccc(C(C)C)cc1O` [Carvacrol], the IC50 (usually the midpoint of a concentration-inhibition curve) in experiment [1] is 180 µM. In addition, the “α-GLU / IC50” value in experiment [2] was 109340 ± 23120 µg/mL.
Turning to `OC[C@H]1NC[C@H](O)[C@@H](O)[C@@H]1O` [1-DNJ], the “β-GLU / IC50” value in experiment [3] was found to be 36 ± 1 µg/mL.
On to `Cc1ccc(C(C)C)c(O)c1` [Thymol], for which the “IC50” value in experiment [4] was 2531 ± 515 µg/mL (≈ 16.8 mM). Also, the “α-GLU / IC50” value in experiment [5] came to 304 ± 25 µg/mL.
Consider `CC1=CCC(C(C)C)=CC1` [γ-terpinene], for which, in experiment [6], the “Ellman assay, absorbance 405 nm” value was “did not show significant AChE inhibition under our experimental conditions”.
